Data reported in patent publication US20260199484A1, “PROTAC DEGRADERS OF MLLT1 AND/OR MLLT3” (DARK BLUE THERAPEUTICS LTD, priority 2024, published 2026).

Experiments:
MLLT1 [1] = biological target: T1, MLLT1 (Homo sapiens, UniProt Q03111); assay: MLLT1 HTRF IC50 determination assay (H3K9cro peptide displacement); assay type: binding; conditions: category, Table 4
T1 sequence (Q03111 1-559): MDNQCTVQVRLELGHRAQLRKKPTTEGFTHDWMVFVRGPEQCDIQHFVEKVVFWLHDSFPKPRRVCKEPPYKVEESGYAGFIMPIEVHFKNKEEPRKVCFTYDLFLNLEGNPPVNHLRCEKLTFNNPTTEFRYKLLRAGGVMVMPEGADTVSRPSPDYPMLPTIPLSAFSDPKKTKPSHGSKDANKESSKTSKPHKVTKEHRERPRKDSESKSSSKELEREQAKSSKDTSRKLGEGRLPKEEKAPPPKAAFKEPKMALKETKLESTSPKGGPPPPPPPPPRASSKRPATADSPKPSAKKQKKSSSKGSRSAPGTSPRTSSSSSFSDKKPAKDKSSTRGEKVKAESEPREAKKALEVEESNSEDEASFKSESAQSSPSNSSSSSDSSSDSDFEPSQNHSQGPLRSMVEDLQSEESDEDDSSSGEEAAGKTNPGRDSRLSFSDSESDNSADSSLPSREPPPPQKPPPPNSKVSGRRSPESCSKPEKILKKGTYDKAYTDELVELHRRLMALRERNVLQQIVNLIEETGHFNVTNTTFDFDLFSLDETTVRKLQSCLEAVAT
Excerpt: (§1) This procedure is intended to measure the interaction between YEATS proteins and histone peptides modified by an appropriate epigenetic mark and can be used to assay compounds which bind to the YEATS proteins and inhibit this interaction. The assay uses 6His tagged MLLT1 or MLLT3 with an anti-6His antibody conjugated with Eu^3+ chelate (donor) and a biotinylated peptide with Streptavidin conjugated XL-665 (acceptor). When the donor and acceptor labels are in close proximity, by binding of the peptide by MLLT1 or MLLT3, the excitation of the donor (337 nm) triggers a Fluorescence Resonance Energy Transfer (FRET) to the acceptor which then fluoresces at specific wavelength (665 nm).
(§2) This step optimises the protein/peptide ratio that will be used in HTRF screening assay in order to allow the best signal-to-noise ratio. Each new purified protein should be titrate this way as the signal-to-noise ratio may differ from different protein batches. Displacement assay for MLLT1 and MLLT3 was performed by using H3K9 cro peptide (ARTKQTAR(Kcrot)STGGKAPRKQLYK(biotin)).
(§3) A serial dilution of 4× solution of biotinylated peptide was prepared in assay buffer (25 mM HEPES, 20 mM NaCl, 0.05% BSA, 0.05% Tween-20, pH 7.0) covering concentrations from 3.2 μM to 0.2 nM. and 5 μL of each dilution were transferred horizontally to fill 15 columns of a white ProxiPlate-384 Plus shallow well Microplate (Perkin Elmer, USA). A sixteenth column of buffer was also included for a background reference. In parallel, a serial dilution of the 6His-tag protein of interest was prepared in the same way and 5 μL of each dilution were vertically added to the wells containing the peptide dilutions. Buffer has been transferred to the last line of the plate in order to make a no-protein reference. The microplate has been covered and incubated 1 hour at room temperature. A 2× detection mix was prepared in assay buffer by diluting streptavidin conjugated with XL-665 (610SAXLB, Cisbio Bioassays, France) to 1/2000 and anti-6His(Eu) chelate (LANCE Eu-W1024 Anti-6×His, ADO111, Perkinelmer LAS (UK)LTD) to 1/20000, 10 μL were added to each well and the plate has been incubated for 1 to 24 hours at room temperature in the dark. The plate was read in the Pherastar using the HTRF module with dual emission protocol (A=ex. 320 nm em. 665 nm, B=ex. 320 nm em. 620 nm).
(§4) The HTRF ratio was calculated as channel A/B*10000 and the specific signal as follow: specific signal=HTRF Ratio Positive signal—HTRF Ratio Negative signal (without protein). The concentrations of protein and peptide that allow the maximum specific signal without saturation were selected to perform HRTF screening assay described below.
(§5) The compounds were dissolved in DMSO at a stock concentration of 10 mM and dispensed into microplate using the Echo acoustic liquid handler (Labcyte, Beckman Coulter, USA). The assay covers a window of compound concentrations from 20 μM to 20 nM spread in 11 data points in duplicate. Solvent and compound controls were added to each plate in order to calculate the background signal.
(§6) Ten microliters of 2× mix of 6His-protein and biotinylated peptide, the concentrations were determined above, were added to the dispensed compounds and incubated for one hour at room temperature in the dark. Ten microliters of the 2× detection mix was added to each well and the plate was incubated for another hour at room temperature in the dark and the plate was read in order to calculate the HTRF specific signal. The % inhibition values as follows:
(§7) The IC50 values were determined by plotting % inhibition vs compound concentration and fitting the data to a non-linear sigmoidal dose response equation (4 parameter fit): […]

MLLT3 = biological target: T2, MLLT3 (Homo sapiens, UniProt P42568); assay: MLLT3 HTRF IC50 determination assay (H3K9cro peptide displacement); assay type: binding; conditions: category, Table 4
T2 sequence (P42568 1-568): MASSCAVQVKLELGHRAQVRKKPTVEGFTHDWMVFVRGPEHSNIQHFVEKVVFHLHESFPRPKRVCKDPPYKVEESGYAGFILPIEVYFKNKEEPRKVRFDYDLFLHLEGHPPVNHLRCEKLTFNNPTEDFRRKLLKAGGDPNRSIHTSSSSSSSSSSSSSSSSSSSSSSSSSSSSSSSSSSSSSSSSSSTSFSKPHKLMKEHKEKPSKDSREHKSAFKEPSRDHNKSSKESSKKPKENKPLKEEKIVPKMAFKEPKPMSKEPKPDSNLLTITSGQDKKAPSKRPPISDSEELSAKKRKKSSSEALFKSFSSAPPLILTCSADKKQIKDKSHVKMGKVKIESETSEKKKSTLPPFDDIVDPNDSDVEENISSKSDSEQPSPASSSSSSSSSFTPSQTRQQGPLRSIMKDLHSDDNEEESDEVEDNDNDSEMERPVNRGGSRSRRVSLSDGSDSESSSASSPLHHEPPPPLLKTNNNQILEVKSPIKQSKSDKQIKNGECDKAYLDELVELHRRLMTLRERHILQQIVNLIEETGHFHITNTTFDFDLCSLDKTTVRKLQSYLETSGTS
Excerpt: as §1, §2, §3, §4, §5, §6, §7

MV4-11 cells = assay: MV4-11 cellular proliferative assay, Assay Format B (CTG 2.0, 168 h); assay type: cell-based; conditions: Homo sapiens, Assay format B, 168 h, read-out: IC50 (MV4-11 cellular proliferative assay)
Experimental: MV4-11 cells at a confluency of ~50-80% was used for cell growth assay. 600 cells/well in a 384-well opaque cell culture plate (6007680; Perkin Elmer) were seeded in 40 μL of complete medium (IMDM+10% FBS+1× Penicillin-Streptomycin). Cells were incubated overnight at 37° C., 5% CO2. 10 mM DMSO stocks were prepared, cells were treated with 10 concentrations of test compounds starting from 1 uM or 100 nM, 3-fold dilution in 10 uL (5× concentration) of complete medium. Final DMSO concentration was 0.3%. Culture plates were centrifuged at 40×g, 30s. Cells were incubated with compounds for 168 h (7 days). After 7 days, 20 uL CTG 2.0 reagent (G9242; Promega) was added per well and luminescence reading was taken in Envision Xcite 2105 multimode plate reader. Data was analyzed in GraphPad Prism 10.0 and data was shown as % viability with respect to DMSO control and dose-response curves were generated using four parameter logistic regression. Assay quality was determined by z-factor calculation using positive and negative controls.

MLLT1 [2] = biological target: T1, MLLT1; assay: MLLT1 degradation assay in MV4-11 cells (JESS, 24 h); assay type: cell-based; design: endogenous in cells; host or cells: MV4-11 (ATCC CRL-9591); conditions: vs DMSO control
Method in brief: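 MV4-11 cells treated at 1000, 100 and 10 nM (0.1% DMSO) for 24 h at 37° C; lysates (4 ug protein) run on JESS capillary immunoassay with MLLT1 and GAPDH antibodies. Peak areas give % degradation versus DMSO, binned A (≥75%) to D (<25%).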

Structure (SMILES)	IC50 (MV4-11 cells)	MLLT1% Degradation @ 0.01 μM (MLLT1 [2])	MLLT1% Degradation @ 0.1 μM (MLLT1 [2])	MLLT1% Degradation @ 1 μM (MLLT1 [2])	IC50 (MLLT1 [1])	IC50 (MLLT3)
CN1CCCC1c1[nH]c2cc(NC(=O)c3ccc4c(cnn4C)c3)ncc2c1F (single isomer, unassigned) [Example 87, N-{3-fluoro-2-[(rel-2R)-1-methylpyrrolidin-2-yl]-1H-pyrrolo[3,2-c]pyridin-6-yl}-1-methylindazole-5-carboxamide]	–	–	–	–	≤ 0.1 µM	≤ 0.1 µM
Cc1nc(NC(=O)c2ccc3c(C)nn(C)c3c2)cc2[nH]c(C3CCCN3C)cc12 (single isomer, unassigned) [Example 93, 1,3-dimethyl-N-{4-methyl-2-[(rel-2S)-1-methylpyrrolidin-2-yl]-1H-pyrrolo[3,2-c]pyridin-6-yl}indazole-6-carboxamide]	–	–	–	–	1 to 10 µM	1 to 10 µM
Cc1nn(C)c2cc(C(=O)Nc3cc4[nH]c(C5CCCN5C)cc4cn3)ccc12 (racemic) [Example 75, rac-1,3-dimethyl-N-(2-(1-methylpyrrolidin-2-yl)-1H-pyrrolo[3,2-c]pyridin-6-yl)-1H-indazole-6-carboxamide]	–	–	–	–	≤ 0.1 µM	0.1 to 1 µM
Cc1c(C2CCCN2C)[nH]c2cc(NC(=O)c3ccc4c(C)nn(C)c4c3)ncc12 (single isomer, unassigned) [Example 91, 1,3-dimethyl-N-{3-methyl-2-[(rel-2S)-1-methylpyrrolidin-2-yl]-1H-pyrrolo[3,2-c]pyridin-6-yl}indazole-6-carboxamide]	–	–	–	–	1 to 10 µM	1 to 10 µM
CCN1CCCC1c1cc2cnc(NC(=O)c3ccc4c(C)nn(C)c4c3)cc2[nH]1 (single isomer, unassigned) [Example 85, N-{2-[(rel-2S)-1-ethylpyrrolidin-2-yl]-1H-pyrrolo[3,2-c]pyridin-6-yl}-1,3-dimethylindazole-6-carboxamide]	–	–	–	–	1 to 10 µM	–

Second part, led by results:

IC50 (MV4-11 cells)	MLLT1% Degradation @ 0.01 μM (MLLT1 [2])	MLLT1% Degradation @ 0.1 μM (MLLT1 [2])	MLLT1% Degradation @ 1 μM (MLLT1 [2])	Structure (SMILES)	IC50 (MLLT1 [1])	IC50 (MLLT3)
< 0.1 µM	A (Category A: A≥75% degradation)	A (Category A: A≥75% degradation)	A (Category A: A≥75% degradation)	Cc1nn(CCCCCCCCC#Cc2cccc3c2CN(C2CCC(=O)NC2=O)C3=O)c2cc(C(=O)Nc3cc4[nH]c([C@H]5CCCN5C)cc4cn3)ccc12 (stereo partly drawn) [Example 54, 1-(10-(2-(2,6-dioxopiperidin-3-yl)-1-oxoisoindolin-4-yl)dec-9-yn-1-yl)-3-methyl-N-(2-((R)-1-methylpyrrolidin-2-yl)-1H-pyrrolo[3,2-c]pyridin-6-yl)-1H-indazole-6-carboxamide]	–	–
< 0.1 µM	A (Category A: A≥75% degradation)	A (Category A: A≥75% degradation)	A (Category A: A≥75% degradation)	Cc1nn(CCCCCCCC#Cc2ccc(F)c3c2CN(C2CCC(=O)NC2=O)C3=O)c2cc(C(=O)Nc3cc4[nH]c([C@H]5CCCN5C)cc4cn3)ccc12 (stereo partly drawn) [Example 52, 1-(9-(2-(2,6-dioxopiperidin-3-yl)-7-fluoro-1-oxoisoindolin-4-yl)non-8-yn-1-yl)-3-methyl-N-(2-((R)-1-methylpyrrolidin-2-yl)-1H-pyrrolo[3,2-c]pyridin-6-yl)-1H-indazole-6-carboxamide]	–	–
< 0.1 µM	A (Category A: A≥75% degradation)	A (Category A: A≥75% degradation)	A (Category A: A≥75% degradation)	Cc1nn(CCCCCCCC#Cc2cccc3c2CN([C@H]2CCC(=O)NC2=O)C3=O)c2cc(C(=O)Nc3cc4[nH]c([C@H]5CCCN5C)cc4cn3)ccc12 (relative stereo) [Example 98, 1-(9-(2-((rel-S)-2,6-dioxopiperidin-3-yl)-1-oxoisoindolin-4-yl)non-8-yn-1-yl)-3-methyl-N-(2-((R)-1-methylpyrrolidin-2-yl)-1H-pyrrolo[3,2-c]pyridin-6-yl)-1H-indazole-6-carboxamide]	–	–
< 0.1 µM	A (Category A: A≥75% degradation)	A (Category A: A≥75% degradation)	A (Category A: A≥75% degradation)	Cc1nn(CCCCCCCC=C(Cl)c2ccc3c(c2)n(C)c(=O)n3C2CCC(=O)NC2=O)c2cc(C(=O)Nc3cc4[nH]c([C@H]5CCCN5C)cc4cn3)ccc12 (mixture of isomers) [Example 40]	–	–
< 0.1 µM	A (Category A: A≥75% degradation)	A (Category A: A≥75% degradation)	A (Category A: A≥75% degradation)	Cc1nn(CCCCCCCC#Cc2cccc3c2CN(C2CCC(=O)NC2=O)C3=O)c2cc(C(=O)Nc3cc4[nH]c([C@H]5CCCN5C)cc4cn3)c(F)cc12 (stereo partly drawn) [Example 58, 1-(9-(2-(2,6-dioxopiperidin-3-yl)-1-oxoisoindolin-4-yl)non-8-yn-1-yl)-5-fluoro-3-methyl-N-(2-((R)-1-methylpyrrolidin-2-yl)-1H-pyrrolo[3,2-c]pyridin-6-yl)-1H-indazole-6-carboxamide]	–	–
